Where a name gives a salt, the structure may show the parent alone.

The term inhibition denotes the drop in the measured response relative to a control, in per cent. Low values mean a response near the control, high ones a response far below the control. For orientation: IC50 means the point on the concentration scale where inhibition reaches its midpoint.

T1 sequence (P13612 34-1032): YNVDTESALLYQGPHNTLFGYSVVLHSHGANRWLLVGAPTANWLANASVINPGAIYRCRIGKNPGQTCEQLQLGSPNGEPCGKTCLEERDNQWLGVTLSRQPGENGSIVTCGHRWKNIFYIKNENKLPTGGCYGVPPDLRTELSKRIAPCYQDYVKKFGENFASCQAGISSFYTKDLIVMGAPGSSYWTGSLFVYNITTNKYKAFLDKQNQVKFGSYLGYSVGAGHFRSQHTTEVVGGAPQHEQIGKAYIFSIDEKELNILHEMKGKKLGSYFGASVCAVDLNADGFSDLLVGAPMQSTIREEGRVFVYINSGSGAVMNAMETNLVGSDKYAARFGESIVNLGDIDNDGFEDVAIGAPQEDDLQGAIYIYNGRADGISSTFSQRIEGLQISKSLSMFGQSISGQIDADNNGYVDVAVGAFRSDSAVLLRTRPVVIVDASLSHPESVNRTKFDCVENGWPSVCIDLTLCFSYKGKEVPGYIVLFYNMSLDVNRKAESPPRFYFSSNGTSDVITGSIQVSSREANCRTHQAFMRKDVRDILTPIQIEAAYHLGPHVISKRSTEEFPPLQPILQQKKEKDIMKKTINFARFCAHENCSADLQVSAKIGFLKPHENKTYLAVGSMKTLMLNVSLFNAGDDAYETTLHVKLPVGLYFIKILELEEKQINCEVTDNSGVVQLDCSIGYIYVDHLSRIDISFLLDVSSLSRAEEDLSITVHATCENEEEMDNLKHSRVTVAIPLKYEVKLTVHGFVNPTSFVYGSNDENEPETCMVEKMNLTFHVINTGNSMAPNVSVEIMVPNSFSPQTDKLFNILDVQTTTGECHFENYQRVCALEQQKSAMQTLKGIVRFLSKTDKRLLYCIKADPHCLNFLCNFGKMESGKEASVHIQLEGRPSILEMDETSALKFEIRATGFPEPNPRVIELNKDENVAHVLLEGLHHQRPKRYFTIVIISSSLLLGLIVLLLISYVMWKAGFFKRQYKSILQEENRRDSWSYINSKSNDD
T1 sequence (P05556 21-798): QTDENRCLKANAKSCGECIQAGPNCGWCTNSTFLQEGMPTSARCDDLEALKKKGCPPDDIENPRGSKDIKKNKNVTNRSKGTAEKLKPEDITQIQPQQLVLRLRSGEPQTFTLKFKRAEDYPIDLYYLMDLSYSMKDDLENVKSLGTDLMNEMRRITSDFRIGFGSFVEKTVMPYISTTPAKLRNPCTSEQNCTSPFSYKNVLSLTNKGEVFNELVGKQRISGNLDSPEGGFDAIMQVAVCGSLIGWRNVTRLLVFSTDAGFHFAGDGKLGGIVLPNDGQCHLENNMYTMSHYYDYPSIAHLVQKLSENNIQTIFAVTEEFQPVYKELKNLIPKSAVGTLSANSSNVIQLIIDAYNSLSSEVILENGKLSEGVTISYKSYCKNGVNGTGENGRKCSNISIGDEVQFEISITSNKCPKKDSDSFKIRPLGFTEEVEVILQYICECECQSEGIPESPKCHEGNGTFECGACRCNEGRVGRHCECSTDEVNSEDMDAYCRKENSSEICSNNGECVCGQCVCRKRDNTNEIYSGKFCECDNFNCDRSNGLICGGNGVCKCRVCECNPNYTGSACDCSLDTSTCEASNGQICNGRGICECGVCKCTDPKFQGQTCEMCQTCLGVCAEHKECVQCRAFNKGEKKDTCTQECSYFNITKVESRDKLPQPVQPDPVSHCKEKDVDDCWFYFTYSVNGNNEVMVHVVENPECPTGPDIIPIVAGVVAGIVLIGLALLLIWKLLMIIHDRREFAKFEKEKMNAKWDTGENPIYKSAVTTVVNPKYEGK

The first assay addresses T1, VLA-4 (α4β1 integrin) binding to immobilized VCAM-1 (Homo sapiens, UniProt P05556+P13612).
T1 construct: followed by 10 μl of Ramos cell-derived VLA-4; endogenous in cells; host or cells: Ramos cells (VLA-4 preparation derived from the cells)
In words: VLA-4/VCAM-1 Screening Assay (solid-phase, dual antibody ELISA).
Conditions: not given
The procedure: VLA-4 antagonist activity, defined as ability to compete for binding to immobilized VCAM-1 was quantitated using a solid-phase, dual antibody ELISA. VLA-4 (α4β1 integrin) bound to VCAM-1 was detected by a complex of anti-integrin β1 antibody: HRP-conjugated anti-mouse IgG: chromogenic substrate (K-Blue). Initially, this entailed coating 96 well plates (Nunc Maxisorp) with recombinant human VCAM-1 (0.4 μg in 100 μl PBS), sealing each plate and then allowing the plates to stand at 4° C for Å18 hr. […] On the day of assay, all plates were washed twice with VCAM Assay Buffer (200 μl/well of 50 mM Tris-HCl, 100 mM NaCl, 1 mM MnCl2, 0.05% Tween 20; pH 7.4). Test compounds were dissolved in 100% DMSO and then diluted 1:20 in VCAM Assay Buffer supplemented with 1 mg/mL BSA (i.e., final DMSO=5%). […] 100 μl per well of each dilution was added to the VCAM-coated plates, followed by 10 μl of Ramos cell-derived VLA-4. These plates were sequentially mixed on a platform shaker for 1 min, incubated for 2 hr at 37° C. and then washed four times with 200 μl/well VCAM Assay Buffer. 100 μl of mouse anti-human integrin β1 antibody was added to each well (0.6 μg/mL in VCAM Assay Buffer+1 mg/mL BSA) and allowed to incubate for 1 hr at 37° C. At the conclusion of this incubation period, all plates were washed four times with VCAM Assay Buffer (200 μl/well). A corresponding second antibody, HRP-conjugated goat anti-mouse IgG (100 μl per well @1:800 dilution in VCAM Assay Buffer+1 mg/mL BSA), was then added to each well, followed by a 1 hr incubation at room temperature and concluded by three washes (200 μl/well) with VCAM Assay Buffer. Color development was initiated by addition of 100 μl K-Blue per well (15 min incubation, room temp) and terminated by addition of 100 μl Red Stop Buffer per well. […] Results were calculated as % inhibition of total binding (i.e., VLA-4+VCAM-1 in the absence of test compound).
`Cc1ccc(C2(C(=O)N[C@@H](Cc3ccc(NC(=O)c4ccnc5ccccc45)cc3)C(=O)O)CCCC2)cc1` [Example 78] came in with an inhibition at 0.01 µM of 63% and an inhibition at 0.1 µM of 93%.

`O=C(Nc1ccc(C[C@H](NC(=O)C2(c3ccc(Cl)cc3)CCCC2)C(=O)O)cc1)c1ccnc2ccccc12` [Example 80] had an inhibition at 0.01 µM of 53% and an inhibition at 0.1 µM of 89%.

Turning to `CCC(C(=O)N[C@@H](Cc1ccc(NC(=O)c2ccnc3ccccc23)cc1)C(=O)O)c1ccccc1` (stereo partly drawn) [Example 69], 0.01 µM produced 49% inhibition and the inhibition at 0.1 µM turned out to be 87%.

In turn, `CC1CCC(C)(C(=O)N[C@@H](Cc2ccc(NC(=O)c3ccnc4ccccc34)cc2)C(=O)O)C1(C)C` (stereo partly drawn) [Example 71] returned an inhibition at 0.01 µM of 51% and an inhibition at 0.1 µM of 86%.

`COc1ccc(C2(C(=O)N[C@@H](Cc3ccc(NC(=O)c4ccnc5ccccc45)cc3)C(=O)O)CCCCC2)cc1` [Example 79] registered an inhibition at 0.01 µM of 77% and an inhibition at 0.1 µM of 95%.

On to `O=C(Nc1ccc(C[C@H](NC(=O)C2(c3ccccc3)CCCCC2)C(=O)O)cc1)c1ccnc2ccccc12` [Example 77], for which testing at 0.01 µM gave an inhibition of 67% and the inhibition at 0.1 µM is 93%.

Still in this assay, the particulars now being: IC50 nM, Ramos cell-derived VLA-4, recombinant human VCAM-1 coated plates, 2 hr at 37° C.
As for `O=C(Nc1ccc(C[C@H](NC(=O)C2(Cc3ccccc3Cl)CCCC2)C(=O)O)cc1)c1c(Cl)cccc1Cl` [Example 51], the IC50 was 1.6 nM.

Still in this assay, the particulars now being: Ramos cell-derived VLA-4, recombinant human VCAM-1 coated plates, 2 hr at 37° C.; read-out: IC50.
In the case of `N#CC1(c2ccccc2)CCN(C(=O)Nc2ccc(C[C@H](NC(=O)C34CC5CC(CC(C5)C3)C4)C(=O)O)cc2)CC1` [Example 118], the IC50 came out at 0.35 nM.

Turning to `CCCCC(C)(CC)C(=O)N[C@@H](Cc1ccc(NC(=O)[C@H](Cc2ccc(O)cc2)NC(C)=O)cc1)C(=O)O` (stereo partly drawn) [Example 91], the IC50 stood at 40 nM.

On to `COc1ccc(C2(C(=O)N[C@@H](Cc3ccc(NC(=O)N4CCC(C#N)(c5ccccc5)CC4)cc3)C(=O)O)CCCCC2)cc1` [Example 122], for which the IC50 was found to be 2.1 nM.

For the molecule `CC1(C(=O)N[C@@H](Cc2ccc(NC(=O)c3ccnc4ccccc34)cc2)C(=O)O)CC1(Cl)Cl` (stereo partly drawn) [Example 64, N-[(2,2-Dichloro-1-methylcyclopropyl)carbonyl]-4-[(4-quinolinylcarbonyl)amino]-L-phenylalanine], the IC50 is 3 nM.

As to `Cn1nnnc1-c1cccc(CC2(C(=O)N[C@@H](Cc3ccc(NC(=O)c4c(Cl)cccc4Cl)cc3)C(=O)O)CCCC2)c1` [Example 48], the IC50 amounted to 0.44 nM.

As for `COCC1(C(=O)NC(Cc2ccc(NC(=O)c3c(Cl)cccc3Cl)cc2)C(=O)O)CCCC1` (stereo not drawn) [Example 60], the IC50 was found to be 1.05 nM.

Turning to `CC1(C)C2CCC1(C(=O)NC(Cc1ccc(NC(=O)c3c(Cl)cccc3Cl)cc1)C(=O)O)C(=O)C2` (stereo not drawn) [Example 49], the IC50 was determined as 4.7 nM.

On to `Cc1ccc(C2(C(=O)N[C@@H](Cc3ccc(NC(=O)c4ccnc5ccccc45)cc3)C(=O)O)CCCC2)cc1` [Example 78], for which the IC50 turned out to be 9 nM.

`COc1ccc(C2(C(=O)NC(Cc3ccc(NC(=O)CCN4CCCCC4)cc3)C(=O)O)CCCCC2)cc1` (stereo not drawn) [Example 102]: the IC50 is 0.95 nM.

Consider `O=C(Nc1ccc(C[C@H](NC(=O)C2(c3ccc(Cl)cc3)CCCC2)C(=O)O)cc1)c1ccnc2ccccc12` [Example 80], for which the IC50 came to 6.4 nM.

`CCC(C(=O)N[C@@H](Cc1ccc(NC(=O)c2ccnc3ccccc23)cc1)C(=O)O)c1ccccc1` (stereo partly drawn) [Example 69]: the IC50 stood at 5.8 nM.

For the molecule `COc1ccc(C2(C(=O)N[C@@H](Cc3ccc(NC(=O)c4cc([N+](=O)[O-])ccc4C)cc3)C(=O)O)CCCCC2)cc1` [Example 105], the IC50 stood at 0.83 nM.

Consider `CC1CCC(C)(C(=O)N[C@@H](Cc2ccc(NC(=O)c3ccnc4ccccc34)cc2)C(=O)O)C1(C)C` (stereo partly drawn) [Example 71], for which the IC50 came out at 2.5 nM.

`O=C(CC1CCCC1)NCCC1(C(=O)N[C@@H](Cc2ccc(NC(=O)c3c(Cl)cccc3Cl)cc2)C(=O)O)CCCC1` [Example 164]: the IC50 stood at 6.2 nM.

For the molecule `Cc1cc(C)c(S(=O)(=O)Nc2ccc(C[C@H](NC(=O)C34CC5CC(CC(C5)C3)C4)C(=O)O)cc2)c(C)c1` [Example 115, N-[(1-Adamantyl)carbonyl]-4-[[(2,4,6-trimethylphenyl)sulfonyl]amino]-L-phenylalanine], the IC50 is 22.7 nM.

As to `COCCC1(C(=O)NC(Cc2ccc(N3C(=O)C(CC(C)C)N(C(C)=O)C3c3ccc(Cl)cc3)cc2)C(=O)O)CCCC1` (single isomer, unassigned) [Example 133], the IC50 was 60 nM.

For the molecule `CC(=O)N[C@@H](Cc1ccc(O)cc1)C(=O)Nc1ccc(C[C@H](NC(=O)C2(C)CC2(Cl)Cl)C(=O)O)cc1` (stereo partly drawn) [Example 101], the IC50 was 18.3 nM.

As to `COc1ccc(CC2(C(=O)N[C@@H](Cc3ccc(NC(=O)c4cc([N+](=O)[O-])ccc4C)cc3)C(=O)O)CCCC2)cc1` [Example 97], the IC50 worked out at 0.5 nM.

Consider `Cn1nnnc1-c1cccc(CC2(C(=O)N[C@@H](Cc3ccc(NC(=O)c4c(Cl)cccc4Cl)cc3)C(=O)O)CCCCC2)c1` [Example 50], for which the 50% inhibitory concentration (IC50) came to 1.3 nM.

For `O=C(NCCC1(C(=O)N[C@@H](Cc2ccc(NC(=O)c3c(Cl)cccc3Cl)cc2)C(=O)O)CCCC1)c1ccc2c(c1)OCO2` [Example 165], the IC50 stood at 11 nM.

Consider `COc1ccc(C2(C(=O)N[C@@H](Cc3ccc(NC(=O)c4ccnc5ccccc45)cc3)C(=O)O)CCCCC2)cc1` [Example 79], for which the IC50 turned out to be 1.2 nM.

`CCCCC(C)(CC)C(=O)N[C@@H](Cc1ccc(NC(=O)c2cc([N+](=O)[O-])ccc2C)cc1)C(=O)O` (stereo partly drawn) [Example 90]: the IC50 came out at 1.04 nM.

Turning to `COCCC1(C(=O)NC(Cc2ccc(N3C(=O)C(CC(C)C)N(C(C)=O)C3c3ccc(Cl)cc3)cc2)C(=O)O)CCCC1` (single isomer, unassigned) [Example 132], the IC50 stood at 2.8 nM.

As for `COc1ccc(CC2(C(=O)N[C@@H](Cc3ccc(NC(=O)N4CCC(C#N)(c5ccccc5)CC4)cc3)C(=O)O)CCCC2)cc1` [Example 119], the IC50 worked out at 5 nM.

Consider `O=C(Nc1ccc(C[C@H](NC(=O)C2(c3ccccc3)CCCCC2)C(=O)O)cc1)c1ccnc2ccccc12` [Example 77], for which the IC50 worked out at 5.6 nM.

As for `COc1ccc(C2(C(=O)NC(Cc3ccc(NC(=O)CCN4CCCCC4)cc3)C(=O)O)CCCC2)cc1` (stereo not drawn) [Example 93], the IC50 stood at 1.9 nM.

Turning to `COc1ccc(C2(C(=O)N[C@@H](Cc3ccc(NC(=O)c4ccc(F)cc4C(F)(F)F)cc3)C(=O)O)CCCCC2)cc1` [Example 104], the IC50 is 10.4 nM.

With `COc1ccc(CC2(C(=O)N[C@@H](Cc3ccc(N4C(=O)c5ccccc5C4=O)cc3)C(=O)O)CCCC2)cc1` [Example 110], the IC50 turned out to be 8.2 nM.

For `CCCCC(C)(CC)C(=O)NC(Cc1ccc(NC(=O)CCN2CCCCC2)cc1)C(=O)O` (stereo not drawn) [Example 87], the IC50 was 1.5 nM.

Take `COc1ccc(CC2(C(=O)N[C@@H](Cc3ccc(NC(=O)[C@H](Cc4ccc(O)cc4)NC(C)=O)cc3)C(=O)O)CCCC2)cc1` [Example 98]: the IC50 is 11.7 nM.

Consider `CC1(C(=O)N[C@@H](Cc2ccc(NC(=O)CCN3CCCCC3)cc2)C(=O)O)CC1(Cl)Cl` (stereo partly drawn) [Example 99], for which the IC50 was 2.1 nM.

For the molecule `COc1ccc(CC2(C(=O)NC(Cc3ccc(NC(=O)c4c(Cl)cccc4Cl)cc3)C(=O)O)CCCC2)cc1OC` (stereo not drawn) [Example 54], the IC50 is 0.82 nM.

In the case of `O=C(Nc1ccc(C[C@H](NC(=O)C2(c3ccccc3)CCCC2)C(=O)O)cc1)c1ccnc2ccccc12` [Example 27, N-[(1-Phenylcyclopentyl)carbonyl]-4-[(4-quinolinylcarbonyl)amino]-L-phenylalanine Sodium Salt], the IC50 stood at 2.7 nM.

Take `COCCC1(C(=O)NC(Cc2ccc(N3C(=O)C(CC(C)C)N(C(C)=O)C3c3ccc(OC)cc3)cc2)C(=O)O)CCCC1` (single isomer, unassigned) [Example 136]: the IC50 came to 0.73 nM.

As for `COc1ccc(CC2(C(=O)N[C@@H](Cc3ccc(NC(=O)c4cc([N+](=O)[O-])ccc4C)cc3)C(=O)O)CCCC2)cc1` [Example 42, N-[[1-[(4-Methoxyphenyl)methyl]cyclopentyl]carbonyl]-4-[[(2-methyl-5-nitrophenyl)carbonyl]amino]-L-phenylalanine], the IC50 was 0.61 nM.
